The text below walks through data of patent US10093642B2, “Multitarget hedgehog pathway inhibitors and uses thereof” (UNIVERSITA' DEGLI STUDI DI SIENA, priority 2013, dated 2018).

As a reminder, the IC50 is the concentration at which inhibition is half-maximal.

One assay deals with T1, SMO receptor (UniProt P56726).
T1 construct: fused on or other part: Possibly a C-terminal Myc3 tag, if the construct is Smo-Myc3 of Chen et al. 2002
Kind of assay: Displacement assay with Bodipy-cyclopamine in HEK293 cells transfected with SMO. Conditions: BC 5 nM, 2 h at 37° C., read-out: IC50 of blocking Bodipy-cyclopamine (BC) binding to SMO.

The target of the next assay is T2, Gli1 (Homo sapiens, UniProt P08151).
T2 construct: expressed in transfected cells; host or cells: HEK293
T2 sequence (P08151 1-1106): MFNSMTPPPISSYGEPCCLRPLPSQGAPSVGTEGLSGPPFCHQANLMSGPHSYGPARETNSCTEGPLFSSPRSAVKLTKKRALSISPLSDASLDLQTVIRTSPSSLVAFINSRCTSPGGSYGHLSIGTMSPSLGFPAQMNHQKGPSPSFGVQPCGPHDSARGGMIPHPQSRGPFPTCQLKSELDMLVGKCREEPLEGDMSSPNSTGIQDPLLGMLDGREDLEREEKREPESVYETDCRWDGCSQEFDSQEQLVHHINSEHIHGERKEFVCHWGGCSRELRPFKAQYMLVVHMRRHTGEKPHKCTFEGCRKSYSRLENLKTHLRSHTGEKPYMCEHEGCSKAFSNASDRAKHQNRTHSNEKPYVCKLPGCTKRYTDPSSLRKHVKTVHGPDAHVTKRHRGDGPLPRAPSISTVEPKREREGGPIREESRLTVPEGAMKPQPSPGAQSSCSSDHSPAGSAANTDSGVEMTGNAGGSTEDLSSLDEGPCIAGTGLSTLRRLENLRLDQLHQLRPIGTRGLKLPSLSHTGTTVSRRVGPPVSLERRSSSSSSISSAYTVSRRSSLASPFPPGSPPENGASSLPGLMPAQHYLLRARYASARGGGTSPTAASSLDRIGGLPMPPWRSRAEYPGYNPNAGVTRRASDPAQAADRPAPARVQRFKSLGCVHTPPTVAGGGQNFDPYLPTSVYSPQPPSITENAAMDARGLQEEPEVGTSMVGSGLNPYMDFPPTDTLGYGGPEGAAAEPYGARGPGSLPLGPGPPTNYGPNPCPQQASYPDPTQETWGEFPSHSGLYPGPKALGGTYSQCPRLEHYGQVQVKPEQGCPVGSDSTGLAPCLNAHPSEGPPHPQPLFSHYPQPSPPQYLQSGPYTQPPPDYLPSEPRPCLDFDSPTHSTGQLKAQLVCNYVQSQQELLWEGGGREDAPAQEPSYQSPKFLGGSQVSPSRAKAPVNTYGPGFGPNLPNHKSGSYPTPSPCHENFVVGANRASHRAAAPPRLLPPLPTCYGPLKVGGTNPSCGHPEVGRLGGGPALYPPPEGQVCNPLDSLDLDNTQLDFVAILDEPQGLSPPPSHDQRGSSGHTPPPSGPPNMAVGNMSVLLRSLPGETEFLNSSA
Kind of assay: Gli1-mediated transcription luciferase assay in HEK293 cells transiently expressing Gli1. In kind it is cell-based. Conditions: 24 h. The procedure: FIG. 7. Inhibition of Gli1-induced transcription in transfected HEK293 cells. HEK293 cells were transfected with 12×GliBS-Luc and pRL-TK Renilla (normalization control) plus control (empty vector) or Gli1 vector and treated with Glabrescione B or GANT61 (20 μM) or vehicle only (DMSO, dimethyl sulfoxide 0.5%—Gli1 bar in the graph) for 24 h and luciferase activity tested. Shown is the mean of three independent experiments. Error bars indicate SD.
Efficacy of Glabrescione B to directly target Gli1 protein, the final effector of Hh pathway, was also tested. […] GANT61, the only small-molecule described to inhibit Gli1 function (Lauth et al., PNAS 104: 8455-8460), was included as positive control.
To investigate the ability of Glabrescione B to block downstream Hh signaling by targeting Gli1 protein functions, the inventors performed a luciferase assay in HEK293 cells transiently expressing Gli1. The cells were seeded in 24-multiwell plates and the day after transfected with Gli1 expression vector together with the reporter plasmids 12×GliBS-Luc and pRL-TK Renilla reniformis (Kogerman P et al, 1999; Everett L et al, 1999). […] After 24 h of treatment cells were lysed and analyzed by using the Dual Luciferase kit according to manufacturer's instructions (Dual-Luciferase® Reporter assay system; Promega, cat. # E1980). […]

Experimental for SMO receptor: (A) HEK293 cells were transiently transfected with pcDNA-SMO vector and incubated with Bodipy-cyclopamine (BC 5 nM) alone (control) or in the presence of increasing concentrations of KAAD (Cyclopamine-KAAD, Smoothened antagonist) or increasing concentrations of Glabrescione B, as indicated. Bodipy-cyclopamine binding (BC binding) (green) is visualized using fluorescence microscopy in a representative field. (B) The concentration-response curve for Glabrescione B was obtained by quantification of the Bodipy-cyclopamine fluorescence in three photographs for each coverslip. The values are expressed as a percentage of the fluorescence detected in control HEK293 cells incubated with Bodipy-cyclopamine alone. The data shown are the means of triplicates derived from a representative experiment of three. Error bars indicate SD (standard deviation). […]
To investigate the binding properties of Glabrescione B to SMO receptor, a competition assay was carried out. In this experiment it was analyzed whether Glabrescione B could compete with Bodipy-cyclopamine (BC; 5 nM USBiological, cat. # B2527), a fluorescent derivative of cyclopamine, which is known to interact with the SMO receptor at the level of its heptahelical bundle. […] Cells were analyzed with a Carl Zeiss microscope (Axio Observer ZI). […] Bodipy-cyclopamine (green) and DAPI (blue) signals were analyzed in 3-4 representative fields for coverslips.

In the case of `COc1cc(OC)c2c(=O)c(-c3ccc(OCC=C(C)C)c(OCC=C(C)C)c3)coc2c1` [Glabrescione B, 3-(3′,4′-bis(3-methylbut-2-enyloxy)phenyl)-5,7-dimethoxy-4H-chromen-4-one], the half-inhibitory concentration (IC50) at SMO receptor is 1 µM; against Gli1 (12×GliBS-Luc reporter) it was ~15 µM. In addition, the “Gli1-induced transcription” value on Gli1 (GANT61 20 μM as positive control) is recorded as “capable of interfering with Gli1-induced transcription in a dose-dependent manner”.
